Reference: PMC6836419, “In vitro and in silico anti-dengue activity of compounds obtained from Psidium guajava through bioprospecting” (BMC Complementary and Alternative Medicine, 2019)
≈ marks a conversion by molar mass, not a printed value. Where two headings read alike, the source gives them in different places.

What was measured:
[1] = test system: DENV-2; details: cited from earlier work
[2] = test system: DENV-2/NG; test: EC50 determination: VERO cells infected with DENV-2/NG in the presence of treatment, multiwell plate focus assay; format: cell-based; details: for EC50: Dengue virus, DENV2, Vero, read-out: Effective concentration 50% (EC50); for Selectivity index (SI): SI = CC50/EC50, VERO cells infected with DENV-2/NG
Method: The SI of each ethanolic extract, fraction, or compound was calculated from the relationship between the cytotoxic concentration 50% (CC50) and effective concentration 50% (EC50). The CC50 was determined via the 3-(4,5-dimethyl-2-thiazolyl)-2,5-diphenyl-2H-tetrazolium bromide) (MTT, Sigma-Aldrich) method. For this, 2.5 × 10^4 VERO cells were seeded in 96-well plates for 24 h. Subsequently, serial dilutions of the ethanolic extracts (7.8 μg/mL to 1000 μg/mL), fractions (6.25 to 400 μg/mL), and characterized compounds (6.25 to 400 μg/mL) were performed and incubated with the cells for 48 h. After the incubation period, an MTT solution (0.5 mg/mL) was added to the cultures, which were then incubated for an additional 3 h at 37 °C. Finally, dimethyl sulfoxide was added, and the absorbance was read at 450 nm in a Bio-Rad Benchmark® microplate reader. Cultures without extract, fractions, or compounds were processed as positive controls for viability. The CC50 was calculated as the extract concentration that reduced cell viability by 50% using regression analysis (Probit software). Each experimental condition was tested in triplicate in two independent experiments (n = 6). To calculate the EC50, 2.5 × 10^4 VERO cells were seeded in 96-well plates for 24 h. At 24 h, serial dilutions of each ethanolic extract (7.8 μg/mL to 1000 μg/mL), fraction (6.25 to 400 μg/mL), and characterized compound (6.25 to 400 μg/mL) were mixed with the DENV-2/NG strain (at a multiplicity of infection (MOI = 1) and added to the cell monolayers for 2 h. At 2 h post-inoculation (hpi), the mixtures were removed, and the same serial dilutions of the extracts, fractions, or compounds were added again and incubated for 24 h. Finally, the supernatants were collected and stored at − 70 °C until performing the multiwell plate focus assay.
(§1) A total of 2.5 × 10^4 cells/well were seeded in 96-well plates. The cells were inoculated the following day with serial dilutions (10^− 1 to 10^− 6) of the supernatants from the EC50 experiments for 2 h. Next, the inoculum were removed, and 1.5% carboxymethylcellulose (Sigma-Aldrich) prepared in DMEM (Gibco®) supplemented with 2% FCS (Gibco®) was added, followed by incubation at 37 °C in a 5% CO 2 atmosphere. On the third day, the cells were fixed with a methanol-acetone (1:1) solution for 10 min, washed three times with PBS, and permeabilized with 0.1% Triton X-100 for 30 min, after which nonspecific site blocking was performed with 10% FBS in PBS. Then, DENV anti-envelope monoclonal antibody (mAb) was diluted 1:500 with PBS containing 10% FCS (Gibco®) was added, followed by incubation for 1 h at 37 °C. After washing with PBS, the plates were incubated for 30 min with an anti-mouse IgG secondary antibody conjugated to peroxidase. Finally, the reactions were stained with 3-amino-9-ethylcarbazole (AEC, Sigma-Aldrich), and the number of foci in each well were counted.
(§2) To determine the CC50 and EC50, a regression analysis was performed with Probit Software. The SI of each molecule was determined from the relationship between the CC50 and EC50, using the formula SI = CC50/EC50. To compare the number of infectious viral particles released between the cells treated with each fraction or compound (for both the pre- and post-treatment strategies) and the untreated cells, Student’s t-test was used. All statistical analyses were performed using the Prism® 7.01 for Windows™ package (GraphPad Software, San Diego, CA), considering differences statistically significant at p < 0.05 in all cases. Each experimental condition was tested in triplicate in two independent experiments (n = 6) to guaranty the statistical analysis and the figures show the average of those experiments.

[3] = MTT cytotoxicity (CC50) in VERO cells; format: cell-based; details: African green monkey (Cercopithecus aethiops)
Method: The CC50 was determined via the 3-(4,5-dimethyl-2-thiazolyl)-2,5-diphenyl-2H-tetrazolium bromide) (MTT, Sigma-Aldrich) method. For this, 2.5 × 10^4 VERO cells were seeded in 96-well plates for 24 h. […] After the incubation period, an MTT solution (0.5 mg/mL) was added to the cultures, which were then incubated for an additional 3 h at 37 °C. Finally, dimethyl sulfoxide was added, and the absorbance was read at 450 nm in a Bio-Rad Benchmark® microplate reader. Cultures without extract, fractions, or compounds were processed as positive controls for viability. […] Each experimental condition was tested in triplicate in two independent experiments (n = 6).
as §2, with “All statistical analyses were performed using the Prism® 7.01 for Windows™ package (GraphPad Software, San Diego, CA), considering differences statistically significant at p < 0.05 in all cases.” left out

[4] = test system: DENV-2/NG; test: Antiviral effect after virus cell entry (post-treatment strategy); format: cell-based; details: for inhibition at 50 µg/mL: Dengue virus, DENV2, Vero, 48 h; for Viral inhibition percentage, post-treatment strategy: VERO cells infected with DENV-2/NG MOI = 1, then compounds 50 μg/mL for 48 h
Method: as §1
A total of 2.5 × 10^4 VERO cells were seeded in 24-well plates for 24 h, and a viral inoculum (DENV-2/NG at an MOI = 1) was then added and incubated for 2 h. Subsequently, the inoculum was removed, and the fractions (100 μg/mL) or characterized compounds (50 μg/mL) were added and incubated with the cells for an additional 48 h (post-treatment strategy). Next, the supernatants were collected and stored at − 70 °C until further processing via the multiwell plate focus assay. For each fraction or compound, two independent experiments were performed each with two replicates (n = 4). Suramin served as the positive control for viral inhibition.
(§3) Fig. 4 Antiviral effects of the compounds derived from the Pg- YP-I-22C fraction on some steps of the DENV replication cycle. The cells were treated with the compounds for 48 h and then infected with DENV (MOI = 1). This infection strategy (pre-treatment) is represented by the dark bars. In addition, independent cell cultures were infected with DENV (MOI = 1) and then treated with the compounds (post-treatment strategy; indicated by clear bars). The error bars correspond to the SEM. The asterisks indicate cases with statistically significant differences (Student’s t-test; p < 0.05) in relation to the control without treatment

[5] = test system: DENV-2/NG; test: Antiviral effect on virus cell entry (pre-treatment strategy); format: cell-based; details: for inhibition at 50 µg/mL: Dengue virus, DENV2, Vero
Method: as §1
A total of 2.5 × 10^4 VERO cells were seeded in 24-well plates for 24 h, and the fractions (100 μg/mL) or characterized compounds (50 μg/mL) were then added and incubated with the cells for an additional 24 h (pre-treatment strategy). Subsequently, treatment was withdrawn, and a viral inoculum (DENV-2/NG at an MOI = 1) was added and incubated for 2 h. Subsequently, the virus was removed, and fresh medium was added for an additional 48 h, after which the supernatants were collected and stored at − 70 °C until further processing via the multiwell plate focus assay. For each fraction and compound, two independent experiments were performed each with two replicates (n = 4). Heparin (Sigma-Aldrich) served as the positive control for viral inhibition.
as §3

[6] = VERO cells, 48 h incubation, MTT, unit given, not in Table 1, read-out: Cytotoxic concentration 50% (CC50)
[7] = read-out: Viral inhibition percentage, post-treatment strategy, VERO cells infected with DENV-2/NG MOI = 1, then compounds 50 μg/mL for 48 h, plate focus assay
[8] = read-out: Viral inhibition percentage, pre-treatment strategy, compounds 50 μg/mL added to VERO cells before infection with DENV-2/NG MOI = 1, plate focus assay

SMILES	EC50 [2] [µg/mL]	Selectivity index (SI) [2]	CC50 at 48 h [3, 6] [µg/mL]	inhibition at 50 µg/mL [4, 7] [%]	other results
CC[C@H]1CC2CN3CCc4c([nH]c5ccc(OC)cc45)[C@](C(=O)OC)(C2)[C@H]13 (stereo in doubt) [voacangine]	–	–	–	–	Inhibition of infection in vitro by plant-derived compounds [1]: greater than 50%
Oc1cc(O)c2c(c1)OC(c1ccc(O)c(O)c1)C(O)C2 (stereo not drawn) [Catechin, catechin]	33.7	24.8	833 (≈ 2870 µM)	91.8	Viral inhibition percentage, post-treatment strategy ([4]; plate focus assay): greater than 90%; inhibition at 50 µg/mL [5, 8]: 100%; Viral inhibition percentage, pre-treatment strategy ([5]; compounds 50 μg/mL added to VERO cells before infection with DENV-2/NG MOI = 1, plate focus assay): greater than 90%
C=C(C)[C@@H]1CC[C@]2(C)CC[C@]3(C)[C@H](CC[C@@H]4[C@@]5(C)CC[C@H](O)C(C)(C)[C@@H]5CC[C@]43C)[C@@H]12 [lupeol]	–	–	–	–	Inhibition of infection in vitro by plant-derived compounds [1]: greater than 50%
O=c1c(O)c(-c2ccc(O)c(O)c2)oc2cc(O)cc(O)c12 [Quercetin, quercetin]	19.2	34.3	–	–	CC50 at 48 h [3]: 660 µg/mL (≈ 2180 µM); inhibition at 50 µg/mL ([4]; read-out: Viral inhibition percentage, post-treatment strategy): 100%; inhibition at 50 µg/mL ([5]; read-out: Viral inhibition percentage, pre-treatment strategy): 50%
C[C@@H]1O[C@@H](O[C@H]2[C@H](Oc3cc(O)c4c(c3)O[C@H](c3ccc(O)cc3)CC4=O)O[C@H](CO)[C@@H](O)[C@@H]2O)[C@H](O)[C@H](O)[C@H]1O [Naringin, naringin]	47.9	13.5	647 (≈ 1110 µM)	64.5	–
Cc1ccc(C(=O)Nc2ccc(S(=O)(=O)O)c3cc(S(=O)(=O)O)cc(S(=O)(=O)O)c23)cc1NC(=O)c1cccc(NC(=O)Nc2cccc(C(=O)Nc3cc(C(=O)Nc4ccc(S(=O)(=O)O)c5cc(S(=O)(=O)O)cc(S(=O)(=O)O)c45)ccc3C)c2)c1 [SURAMIN, suramin, reference compound]	–	–	–	–	Viral inhibition percentage, post-treatment strategy ([4]; plate focus assay): better inhibition
O=C(O)c1cc(O)c(O)c(O)c1 [Gallic Acid, gallic acid]	25.8	21.1	543 (≈ 3190 µM)	67.3	inhibition at 50 µg/mL [5, 8]: 52.6%
